“Also recorded” adds a separate entry of the source.
Tests used:
[1] = tested on: human α-synuclein; assay: Masliah D-line α-synuclein transgenic mouse, α-synuclein immunoreactivity and ELISA; type: in vivo; conditions: 0.09 mg/kg, second trial (FIG. 2B)
[2] = tested on: isolated islets / INS1; assay: Oxygen consumption, Seahorse XF24 bioenergetic assay; type: cell-based; conditions: 1 nM
Protocol: Impaired mitochondrial function is shown by a decreased rate of oxygen consumption. […] The effect of LNK-754 at 1 nM and 10 nM doses on oxygen consumption was determined. Oxygen consumption in INS1 was measured using a Seahorse XF24 bioenergetic assay. Assays have been previously described in detail (See, Wu M, et al. Am J Physiol Cell Physiol 2007; 292:C125-36).

[3] = tested on: INS-1 cells; assay: Whole cell mitochondrial fusion assay (paGFP) in INS-1 cells; type: cell-based; conditions: 1 nM, 48 hours
Description: Mitochondrial dynamics is necessary for the maintenance of bioenergetic functions and maintenance of homogenous population of mitochondria. Mutations in Mfn2 and Opal have been implicated in neuropathies. A whole cell fusion assay was used to evaluate the effect of LNK-754 on the enhancement of mitochondrial fusion and fission events. Photo-activateable GFP is used to label and follow an individual mitochondrion. Photo-activatable GFP becomes fluorescent only after absorbing UV light. Mitochondria undergo frequent fusion and fission. During fusion, the labeled mitochondrion passes fluorescent GFP to a neighboring unlabeled mitochondrion (Molina and Shirihai, […], 2009). […] The following assay protocol was followed: paGFP expression was carried out using adenoviral transduction if INS-1 cells. The cells were treated for 48 hours with 1 nM LNK-754. Mitochondria were labeled with TMRE to facilitate tagging. UV pulse was delivered by two-photon laser. Z-stacks of individual cells were taken every 5 minutes for 30 minutes. Three separate runs were performed over 3 weeks at imaging facilities.

[4] = tested on: TAU; assay: TAU441 transgenic mice, TAU immunoreactivity (AT180, HT7) in amygdala; type: in vivo, mouse; conditions: 0.09 mg/kg once every 24 hours, three months, vs vehicle
Protocol: Animals and treatments: Male and female human WT alpha-synuclein over-expressing transgenic mice^32 at 6 months of age were given vehicle (10% beta-cyclodextrin) or LNK-754-TS (0.09, 0.9 and 9 mg/kg) per oral gavage twice daily for 3 months or animals at 7 months of age were given vehicle (2.5% beta-cyclodextrin) or LNK-754-TS (2 mg/kg) once every three days for 3 months. […]
Immunohistochemistry and quantification of stained cells: For evaluation of α-synuclein immunoreactivity (IR), 5 sagittal cryo-cut sections (10 μm slice thickness) from five different layers were used for counting of IR cells in the cortex and hippocampus. […] IR positive cells were quantified using specialized image analysis software (Image Pro Plus, version 4.5.1.29). […] Images were evaluated with ImageProPlus (version 6.2) image analysis software. […] Primary antibodies were detected by the ABC method.
This study was designed to evaluate the effects of a treatment with LNK-754-TS dosed at 0.09 mg per kg on behavior, TAU and TAU-pT231 levels, and brain morphology of TAU441 Tg mice. Histological evaluations were performed to quantitatively evaluate TAU pathology. TAU depositions were determined using the monoclonal TAU-antibodies AT180 and HT7. […] Afterwards images were evaluated with ImageProPlus (version 6.2) image analysis software (FIG. 10A).

[5] = tested on: Ras; assay: Soluble/cytoplasmic Ras level in frontal cortex of alpha-synuclein transgenic mice; type: in vivo, mouse; conditions: 0.09 mg/kg or 9 mg/kg b.i.d. 3 months vs vehicle
Protocol: The level of inhibition of Ras in brain by LNK-754-TS, dosed at an efficacious dose for efficacy in animal models of proteinopathy-dependent neurodegeneration, was investigated. Alpha-synuclein transgenic mice were treated for 3 months b.i.d. with vehicle or LNK-754-TS at 0.09 mg/kg or 9 mg/kg. Cortical tissue was extracted and homogenized, followed by isolation of soluble/cytosolic proteins in detergent-free buffer (50 mM Tris-HCl pH 7.4, 140 mM NaCl, 2 mM EDTA, Protease inhibitor cocktail) by centrifugation. 15 micrograms of protein lysate was analyzed per lane of SDS-PAGE gel, and immunoblotted for Ras and actin (FIG. 6). Densitometry was used to quantify the Ras/actin ratio for each sample, and results were plotted (FIG. 7). […] This contrasts with what is observed in xenograft cancer models, where inhibition of Ras farnesylation by high dose FTIs is directly correlated with efficacy (FIG. 3 and Example 3).

[6] = tested on: LC3-II protein; assay: LC3-II protein level in SH-SY5Y cells with or without bafilomycin A1; type: cell-based, human
Protocol: The observed increase in LC3-positive autophagosomes could result, in principle, from either an increased flux through the autophagy pathway or decreased autophagosome degradation (Pankiv, S., et al. J Biol Chem 282, 24131-24145 (2007); Kamada, Y., et al. J Cell Biol 150, 1507-1513 (2000)). […] In order to ascertain an increase in autophagic flux, cells were co-treated with LNK-754-TS and an inhibitor of autophagosome-lysosome fusion, bafilomycin A1 (10 nM). Bafilomycin treatment alone caused a 100% increase in the amount of LC3-II, consistent with the fact that it inhibits autophagosome degradation (FIG. 8c).

Structure (SMILES)	number of α-synuclein positive neurons [1]	oxygen consumption (OCR) [2]	mitochondrial dynamics (fusion and fission) [3]	phosphorylated Tau (AT180) immunoreactivity in amygdala [4]	total TAU (HT7) immunoreactivity [4]	soluble Ras/actin level in cortex [5]	additional increase in LC3-II over bafilomycin alone ([6]; 100 nM in combination with bafilomycin A1 10 nM) [%]	accumulation of LC3-I or LC3-II protein ([6]; compound alone, without bafilomycin)
C#Cc1cccc(-c2cc(=O)n(C)c3ccc([C@](O)(c4ccc(Cl)cc4)c4cncn4C)cc23)c1 [LNK-754, (R)-6-[(4-chlorophenyl)-hydroxyl-(1-methyl-1-H-imidazol-5-yl)-methyl]-4-(3-ethynylphenyl)-1-methyl-2-(1H)-quinonlinone]	significantly lowered	increases oxygen consumption	promotes mitochondrial dynamics					
C#Cc1cccc(-c2cc(=O)n(C)c3ccc([C@](O)(c4ccc(Cl)cc4)c4cncn4C)cc23)c1 [LNK-754-TS, (R)-6-[(4-chlorophenyl)-hydroxyl-(1-methyl-1-H-imidazol-5-yl)-methyl]-4-(3-ethynylphenyl)-1-methyl-2-(1H)-quinonlinone (2S, 3S)-dihydroxybutanedioate]				significantly decreased; also recorded: significant reduction; also recorded: significantly reduced	not significantly reduced; also recorded: did not change	No significant differences	75	did not cause accumulation

Reference: patent publication US20100331363A1, “TREATMENT OF MITOCHONDRIAL DISORDERS USING A FARNESYL TRANSFERASE INHIBITOR” (Link Medicine Corporation, priority 2008, published 2010)
